Laboratory results published in patent US9468615B2, “Use of malononitrilamides in neuropathic pain” (AL-GIAX Pharmaceuticals GMBH, priority 2010, dated 2016).

Assays:
[1] = system: partial ligation of the sciatic nerve; assay: Mechanical sensitivity (von Frey, Up-Down) after partial ligation of the sciatic nerve; format: in vivo, rat; conditions: DPO 21, after daily oral 10 mg/kg DPO 14 till DPO 21; 60 grams before injury, 19 grams at DPO 14 before treatment; FIG. 8
Experimental: The mechanical sensitivity response was measured as the direct pressure stimulus required eliciting foot withdrawal in nonrestained conditions. Animals were habituated to the testing apparatus for at least 20 min before testing. Each animal was subjected to the stimulation of a series of von Frey filaments ranging from 1.0 to 60 g using the Up-Down paradigm according to Chapter (Chaplan et al., 1994). The selected von Frey filament was pressed against the plantar surface of the hind paw to the point of 30° bending for 3 s. Paw withdrawal response was considered as the positive response. The 50% threshold force needed for paw withdrawal was calculated for both hind paws of each rat. The methods of Seltzer et al. (1990) were followed. The dorsum of the sciatic nerve was carefully freed from surrounding connective tissues at a site near the trochanter just distal to the point at which the posterior biceps semitendinosus nerve branches off the common sciatic nerve. The nerve was fixed in its place by pinching the epineurium on its dorsal aspect, taking care not to press the nerve against underlying structures. An 8-0 (Polyamide 6) suture was inserted into the nerve and tightly ligated so that the dorsal ⅓-½ of the nerve thickness was trapped in the ligature (Seltzer et al., 1990). […]

[2] = system: severe spinal cord contusion injury in the rat; assay: Mechanical sensitivity (von Frey, Up-Down) after severe spinal cord contusion injury, treatment DPO 28-35; format: in vivo; conditions: for withdrawal threshold (50% threshold force): DPO 28, before start of treatment (group baseline), 15 grams before injury, vehicle group 2.7
Experimental: (§1) Thirteen week-old female Lewis rats (Charles River, Sulzfeld Germany) were housed under a 12:12 h dark/light regime and allowed free access to water and food. After one week of habituation the animals underwent general anesthesia with a mixture of isoflurane and air (induction: 5% isoflurane, maintenance: 2.2% isofluorane). A Th10 laminectomy was performed without rupturing the dura and a severe contusive SCI (25 gem NYU/MASCIS II impactor) (Gruner, 1992 #3) was induced. After suturing muscle and skin, a subcutaneous (s.c.) injection of 5 ml of Ringers Lactate was given. Bladders were emptied manually 2 times a day until spontaneous voiding returned (usually within 1 week). The lesion severity was verified by the impact velocity and contusion depth of the impactor rod. Animals with an impact velocity error >5% were excluded from further analysis. After injury, individual rats were randomly assigned into a treatment group. The following groups were used:
The mechanical sensitivity response was measured as the direct pressure stimulus required eliciting foot withdrawal in nonrestrained conditions. All tests were conducted in the morning between 7:30 and 10:30 am and the person performing the behavioral tests was blinded to the experimental groups. Animals were habituated to the testing apparatus for at least 20 min before testing. Each animal was subjected to the stimulation of a series of von Frey filaments ranging from 0.4 to 15 g (log force 3.61, 3.84, 4.08, 4.31, 4.56, 4.74, 4.93 and 5.18) using the Up-Down paradigm according to Chaplan (Chaplan et al., 1994). The selected von Frey filament was pressed against the plantar surface of the hind paw to the point of 30° bending for 3 s. Paw withdrawal response was considered as the positive response. The 50% threshold force needed for paw withdrawal was calculated for both hind paws of each rat and the mean value of both hind paws was used to represent the mechanical sensitivity of this animal.
(§2) Group 2: SCI+HR 325 (10 mg/kg/day) in vehicle by gavage for 7 days, from DPO 28 till DPO 35
(§3) Group 3: SCI+FK 778 (10 mg/kg/day) in vehicle by gavage for 7 day, from DPO 28 till DPO 35

[3] = system: spinal cord contusion injury; assay: Mechanical sensitivity (von Frey, Up-Down), chronic central neuropathic pain three months after spinal cord contusion injury, treatment DPO 84-91; format: in vivo, rat; conditions: DPO 28, before treatment (group baseline, stable up to DPO 84); 15 grams before injury; vehicle group 3.2
Experimental: as §1, with “used: The mechanical sensitivity response was measured as the direct pressure stimulus required eliciting foot withdrawal in nonrestrained conditions. […] The 50% threshold force needed for paw withdrawal was calculated for both hind paws of each rat and the mean value of both hind paws was used to represent the mechanical sensitivity of this animal. […]” for “used:”

[4] = system: severe spinal cord contusion injury in the rat; assay: Acetone test (cold chemical stimulus) after severe spinal cord contusion injury, treatment DPO 28-35; format: in vivo; conditions: 10 mg/kg/day by gavage DPO 28 till DPO 35
Experimental: as §1, §2, §3
A slightly modified method of De la Calle and colleagues (De la Calle et al., 2002) was used for the determination of the reactivity to a cold chemical stimulus. The rat was placed in acrylic cages on top of a wire mesh grid, which allowed access to the paws, and acetone was applied to the plantar surface of the hind paw. To do this, 100 μl of acetone was sprayed onto the plantar surface of the rat's hind leg from below the grid with a syringe holding 2.5 ml. The time spent with the leg withdrawn from floor during the 60 s following exposure to acetone was recorded. Both hind legs were tested in each animal with an interval of 5-10 min between each test. The average reaction time between the two legs was taken for further analysis. A minimal value of 1 s was assigned to convey a fast or brisk reaction, while 0 was assigned if there was no reaction at all. This acetone test has been described as composing of cold, chemical, and possibly mechanical stimulation.

| Compound | withdrawal threshold in the ipsilateral paw [1] [grams] | withdrawal threshold (50% threshold force) [2] [grams] | withdrawal threshold (50% threshold force) [3] [grams] | reversal of mechanical allodynia after experimental spinal cord injury (conclusion) ([2]; 10 mg/kg/day by gavage DPO 28 till DPO 35) | withdrawal threshold vs vehicle control animals ([2]; DPO 35, 10 mg/kg/day by gavage DPO 28 till DPO 35, one-way ANOVA p<0.001, FIG. 2) | withdrawal threshold, difference to vehicle controls ([2]; end of experiment DPO 77, 10 mg/kg/day by gavage DPO 28 till DPO 35, p<0.001) | reversal of cold allodynia after experimental spinal cord injury (conclusion) [4] | duration of response to acetone exposure vs vehicle controls ([4]; DPO 35, one-way ANOVA p<0.01, FIG. 3) | duration of response to acetone exposure vs vehicle controls ([4]; DPO 56, ANOVA p<0.001, Bonferroni post-hoc) | duration of response to acetone exposure, differences to vehicle controls ([4]; end of experiment DPO 70, p<0.01) |
| --- | --- | --- | --- | --- | --- | --- | --- | --- | --- | --- |
| Cc1cc(NC(=O)/C(C#N)=C(\O)C2CC2)ccc1C(F)(F)F [HR-325, 1(3-methyl-4-trifluoromethylphenyl-carbamoyl)-2-cyclopropyl-2oxo-propionitrile] | 54 | 3.0 | 2.7 | – | – | – | – | – | – | – |
| C#CCCC(O)=C(C#N)C(=O)Nc1ccc(C(F)(F)F)cc1 [FK-778, N-(4-trifluoromethyl)-phenyl-2-cyano-3-hydroxy-hept-2-en-6-in-carboxylic acidamide] | – | 3.1 | – | able to reverse mechanical allodynia | significantly higher | statistically significant difference between the treated animals and the vehicle controls remained | able to reverse cold allodynia | responded significantly shorter | responded significantly shorter | differences remained unchanged |
